In ChEMBL document CHEMBL4715692, “Design, synthesis and activity evaluation of novel peptide fusion inhibitors targeting HIV-1 gp41” (Bioorg Med Chem, 2016):
Activity calls are given as the source filed them. The rule behind the calls is not given here. Where a SMILES comes first, the peptide text is derived from it. The star is where a group is joined. X1 = CCCCCCCCCCCCCCC(=O)O*

Assays:
[1] = Inhibition of gp41 in HIV1 3B infected in human HeLa-MAGI-CCR5 cells harboring reporter gene comprising HIV1 LTR in the upstream and lacZ gene of Escherichia coli in the downstream assessed as inhibition of cell-cell fusion by optical microscopy analysis; type: cell-based; details: Human immunodeficiency virus 1, 3B
[2] = tested on: Human immunodeficiency virus 1; test: Binding affinity to gp41 NHR helix in HIV1 assessed as inhibition of gp41 6-helix conformation incubated for 1 hr by native PAGE analysis
[3] = tested on: Human immunodeficiency virus 1; test: Binding affinity to gp41 NHR helix in HIV1 assessed as interaction between compound-gp41 5-helix causing band deviation incubated for 1 hr by SDS-PAGE analysis
[4] = tested on: Human immunodeficiency virus 1; test: Binding affinity to gp41 NHR helix in HIV1 assessed as interaction between compound-gp41 5-helix causing band deviation incubated for 1 hr by native PAGE analysis
[5] = tested on: Human immunodeficiency virus 1; test: Binding affinity to gp41 NHR helix in HIV1 assessed as inhibition of gp41 6-helix conformation incubated for 1 hr by SDS-PAGE analysis

| Compound | IC50 [1] | further results |
| --- | --- | --- |
| H-RAWVAWRNKIDRYTKKIEELIRELIRAAQELQEKNEAALKEL-OH | 338 nM | – |
| CCCCCCCCCCCCCCC(=O)OC(=O)[C@H](CCC(N)=O)NC(=O)[C@H](CCC(N)=O)NC(=O)[C@H](CCCNC(=N)N)NC(=O)[C@H](CCC(N)=O)NC(=O)[C@H](C)NC(=O)[C@H](CC(=O)O)NC(=O)[C@H](CCCCN)NC(=O)[C@@H](NC(=O)[C@H](CC(C)C)NC(=O)[C@H](C)NC(=O)[C@H](CCC(=O)O)NC(=O)[C@@H](NC(=O)[C@H](CC(N)=O)NC(=O)[C@H](CCCNC(=N)N)NC(=O)[C@@H](NC(=O)[C@H](Cc1ccc(O)cc1)NC(=O)[C@H](CC(N)=O)NC(=O)[C@H](CCC(=O)O)NC(=O)[C@@H](NC(=O)[C@H](CCC(=O)O)NC(=O)[C@H](CCCNC(=N)N)NC(=O)[C@H](CC(=O)O)NC(=O)[C@H](Cc1c[nH]c2ccccc12)NC(=O)[C@H](CCC(N)=O)NC(=O)[C@H](CCC(=O)O)NC(=O)[C@H](Cc1c[nH]c2ccccc12)NC(=O)[C@@H](NC(=O)[C@H](CCCCN)NC(=O)[C@H](CC(N)=O)NC(=O)[C@H](CC(N)=O)NC(=O)[C@H](Cc1c[nH]c2ccccc12)NC(=O)[C@H](CCC(=O)O)NC(=O)[C@@H](N)CCC(N)=O)[C@@H](C)O)[C@@H](C)CC)C(C)C)[C@@H](C)CC)[C@@H](C)CC (H-QEWNNKTWEQWDREIENYVRNIEALIKDAQRQQ-X1) | 222 nM | – |
| CC[C@H](C)[C@H](NC(=O)[C@H](CC(C)C)NC(=O)[C@H](CCC(=O)O)NC(=O)[C@H](CCC(=O)O)NC(=O)[C@@H](NC(=O)[C@H](CCCCN)NC(=O)[C@H](CCCCN)NC(=O)[C@@H](NC(=O)[C@H](Cc1ccc(O)cc1)NC(=O)[C@H](CCCNC(=N)N)NC(=O)[C@H](CCC(=O)O)NC(=O)[C@@H](NC(=O)[C@H](CCC(=O)O)NC(=O)[C@H](CC(=O)O)NC(=O)[C@H](CCCNC(=N)N)NC(=O)[C@H](Cc1c[nH]c2ccccc12)NC(=O)[C@H](CC(=O)O)NC(=O)[C@H](CS)NC(=O)[C@H](Cc1c[nH]c2ccccc12)NC(=O)[C@@H](NC(=O)[C@@H](N)CCSC)[C@@H](C)O)[C@@H](C)CC)[C@@H](C)O)[C@@H](C)CC)C(=O)N[C@@H](CCCNC(=N)N)C(=O)N[C@@H](C)C(=O)N[C@@H](C)C(=O)N[C@@H](CCC(N)=O)C(=O)N[C@@H](CCC(=O)O)C(=O)N[C@@H](CC(C)C)C(=O)N[C@@H](CCC(N)=O)C(=O)N[C@@H](CCC(=O)O)C(=O)N[C@@H](CCCCN)C(=O)N[C@@H](CC(N)=O)C(=O)N[C@@H](CCC(=O)O)C(=O)N[C@@H](C)C(=O)N[C@@H](C)C(=O)N[C@@H](CC(C)C)C(=O)N[C@@H](CCCCN)C(=O)N[C@@H](CCC(=O)O)C(=O)N[C@@H](CC(C)C)C(=O)O | 159 nM | – |
| H-VEWNARAWVAWRNRIENYAKKIEKLIRQSQEQQ-OH | 1000 nM | – |
| H-MTWCDWRDEIERYTKKIEELIRAAQEWQEKNEAALKEL-OH | 53 nM | inhibition [2]: Active; Activity [3]: Active; Activity [4]: Active; inhibition [5]: Active |
| H-SIWNNMTWCDWRDEIEEYTKKIEELIKKSQEQASWNWF-OH | 203 nM | – |
| H-RAWVAWRNKIENYTRRIEELIEELIRRSQEQERRQ-OH | > 2430 nM | – |
| CC[C@H](C)[C@H](NC(=O)[C@H](CC(C)C)NC(=O)[C@H](CCC(=O)O)NC(=O)[C@H](CCC(=O)O)NC(=O)[C@@H](NC(=O)[C@H](CCCCN)NC(=O)[C@@H](CCCCN)NC(=O)[C@@H](NC(=O)[C@H](Cc1ccc(O)cc1)NC(=O)[C@H](CCCNC(=N)N)NC(=O)[C@H](CCC(=O)O)NC(=O)[C@@H](NC(=O)[C@H](CCC(=O)O)NC(=O)[C@H](CC(=O)O)NC(=O)[C@H](CCCNC(=N)N)NC(=O)[C@H](Cc1c[nH]c2ccccc12)NC(=O)[C@H](CC(=O)O)NC(=O)[C@H](CS)NC(=O)[C@H](Cc1c[nH]c2ccccc12)NC(=O)[C@@H](NC(=O)[C@@H](N)CCSC)[C@@H](C)O)[C@@H](C)CC)[C@@H](C)O)[C@@H](C)CC)C(=O)N[C@@H](CCCNC(=N)N)C(=O)N[C@@H](C)C(=O)N[C@@H](C)C(=O)N[C@@H](CCC(N)=O)C(=O)N[C@@H](CCC(=O)O)C(=O)N[C@@H](CC(C)C)C(=O)N[C@@H](CCC(N)=O)C(=O)N[C@@H](CCC(=O)O)C(=O)N[C@@H](CCCCN)C(=O)N[C@@H](CC(N)=O)C(=O)N[C@@H](CCC(=O)O)C(=O)N[C@@H](C)C(=O)N[C@@H](C)C(=O)N[C@@H](CC(C)C)C(=O)N[C@@H](CCCCN)C(=O)N[C@@H](CCC(=O)O)C(=O)N[C@@H](CC(C)C)C(=O)O | 57.2 nM | – |
| H-QEWNNKTWEQWDREIENYVRNIEALIKDAQRQQ-OH | 866 nM | – |
